Consider 10 molecules from patent US10899754B2, “Modulators of indoleamine 2,3-dioxygenase” (GLAXOSMITHKLINE INTELLECTUAL PROPERTY DEVELOPMENT LIMITED, priority 2016, dated 2021).

Common to all, as to format: cell-based
The subject of data set [1] is human peripheral blood mononuclear cells (PBMC). Put plainly: PBMC cytotoxicity assay (CellTiter-Glo). As to conditions: 2 days, pCC50. The method, boiled down:
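Human PBMC (50,000 cells/well) stimulated with IFN-γ 100 ng/ml and LPS 50 ng/ml were exposed to 11-point 3-fold compound dilutions for 2 days at 37 °C, 5% CO2. Viability read by CellTiter-Glo ATP luminescence and normalized to no-cell and stimulated-DMSO controls. XC50 derived by four-parameter fit.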

The target in data set [2] is T1, indoleamine 2, 3-dioxygenase (IDO1) (Homo sapiens, UniProt P14902). Put plainly: IDO1 PBMC RapidFire MS assay (kynurenine detection by mass spectrometry). The arrangement: to induce the expression of indoleamine 2, 3-dioxygenase (IDO1); host or cells: human PBMC stimulated with IFN-gamma and LPS. As to conditions: human PBMC stimulated with IFN-γ and LPS, 2 days, pIC50, read-out: PBMC PXC50 (converted). The method, boiled down:
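PBMCs (50,000 cells/well) stimulated with IFN-γ 100 ng/ml plus LPS 50 ng/ml, treated with 11-point 3-fold compound series for 2 days at 37° C. Supernatant kynurenine measured by RapidFire MS, normalised to internal standard; parallel cytotoxicity by CellTiter-Glo luminescence; curves fitted for XC50.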

The test system of data set [3] is human epithelial HeLa cells. The data set can be described thus: HeLa cytotoxicity assay (CellTiter-Glo). The settings on record: pCC50. The method, boiled down: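 HeLa cells (5,000/well) stimulated with 10 nM IFN-γ, exposed to 11-point 3-fold compound dilutions for 2 days at 37 °C; viability by CellTiter-Glo ATP luminescence. Normalized to cell-free (100% cytotoxicity) and stimulated-cell DMSO (0%) controls; four-parameter fit gives pCC50.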
(ATP-based viability assays read luminescence as a measure of living cells.)

In data set [4] the target is T1, indoleamine 2, 3-dioxygenase (IDO1). The data set can be described thus: IDO1 HeLa RapidFire MS assay (kynurenine detection by mass spectrometry). On the set-up: to induce the expression of indoleamine 2, 3-dioxygenase (IDO1). The settings on record: HeLa cells, pIC50, read-out: IDO1_HELA_PXC50 (converted). The method, boiled down:
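Compound potency reported as pIC50 from kynurenine/internal-standard ratio (RapidFire MS) in supernatant of IFN-γ-induced (10 nM) HeLa cells, 5,000 per well, after 2 days' treatment with 11-point dilutions. Cytotoxicity in the same format by luminescent ATP detection, reported as pCC50.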

T1 sequence (P14902 whole entry): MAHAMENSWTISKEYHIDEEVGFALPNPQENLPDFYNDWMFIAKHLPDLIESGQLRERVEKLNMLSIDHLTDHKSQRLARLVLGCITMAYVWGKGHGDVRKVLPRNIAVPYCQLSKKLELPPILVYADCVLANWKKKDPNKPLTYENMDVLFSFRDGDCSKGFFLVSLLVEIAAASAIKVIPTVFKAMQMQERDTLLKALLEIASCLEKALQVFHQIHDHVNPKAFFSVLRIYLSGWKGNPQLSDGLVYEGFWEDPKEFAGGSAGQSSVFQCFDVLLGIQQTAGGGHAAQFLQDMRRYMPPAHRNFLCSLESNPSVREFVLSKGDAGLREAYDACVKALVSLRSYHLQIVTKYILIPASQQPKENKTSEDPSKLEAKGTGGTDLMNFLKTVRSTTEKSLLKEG

As to `CC[C@H](CC(=O)O)c1ccc(N(CC(C)C)C2CCCCC2)c(Nc2nc(Cl)ns2)c1` [Example 42], the “PBMC TOX PXC50” value in data set [1] was under 5. Moreover, the IC50 in data set [2] was 0.501 nM; in data set [4] it was 5.01 nM. For the same molecule, in data set [3], the HELA_IDO1_TOX_PXC50 was under 5.
As to `CC(C)CN(c1cc(F)c([C@H](C)CC(=O)O)cc1Nc1ccc(Cl)nc1)C1CCOCC1` [Example 37, (R)-3-(5-((6-chloropyridin-3-yl)amino)-2-fluoro-4-(isobutyl(tetrahydro-2H-pyran-4-yl)amino)phenyl)butanoic Acid], the “PBMC TOX PXC50” value in data set [1] is recorded as under 5. Besides, the IC50 in data set [2] was 1.26 nM; in data set [4] it was 5.01 nM. Also, in data set [3], the HELA_IDO1_TOX_PXC50 was under 5.
As to `CC(C)CN(c1ccc(C2CC2C(=O)O)cc1Nc1nc(C(F)(F)F)ns1)C1CCCCC1` (single isomer, unassigned) [Example 104, 2-(4-(cyclohexyl(isobutyl)amino)-3-((3-(trifluoromethyl)-1,2,4-thiadiazol-5-yl)amino)phenyl)cyclopropanecarboxylic Acid], the “PBMC TOX PXC50” value in data set [1] is on record as under 5. Also, the values for the IC50 in data set [2] and in data set [4] were 2.51 nM and 3.16 nM, respectively. The molecule also had an HELA_IDO1_TOX_PXC50 in data set [3] of under 5.
Consider `CC[C@H](CC(=O)O)c1ccc(N(CC(C)C)CC(C)C)c(Nc2nc(C(F)(F)F)ns2)c1` [Example 39, (R)-3-(4-(diisobutylamino)-3-((3-(trifluoromethyl)-1,2,4-thiadiazol-yl)amino)phenyl)pentanoic Acid], for which the “PBMC TOX PXC50” value in data set [1] is given as under 5. Besides, the IC50 in data set [2] was 1 nM; in data set [4] it was 2.51 nM. In addition, in data set [3], the HELA_IDO1_TOX_PXC50 is recorded as under 5.
As to `CC(C)CN(c1ccc(C(C)CC(=O)O)cc1NCc1ccccn1)C1CCCCC1` (stereo not shown) [example 161, 3-{4-[cyclohexyl(2-methylpropyl)amino]-3-{[(pyridin-2-yl)methyl]amino}phenyl} butanoic acid], the “PBMC TOX PXC50” value in data set [1] is given as under 5. The IC50 in data set [2] is 2000 nM; in data set [4], 2510 nM. The HELA_IDO1_TOX_PXC50 in data set [3] is listed as under 5.
In the case of `CC(C)CN(c1ccc([C@H](C)CC(=O)O)cc1Nc1nc(C2CC2)ns1)C1CCOCC1` [Example 28, (R)-3-(3-((3-cyclopropyl-1,2,4-thiadiazol-5-yl)amino)-4-(isobutyl(tetrahydro-2H-pyran-4-yl)amino)phenyl)butanoic Acid], in data set [1], the “PBMC TOX PXC50” value is under 5. Moreover, the results for the IC50 in data set [2] and in data set [4] were 5.01 nM and 6.31 nM, respectively. Further, the HELA_IDO1_TOX_PXC50 in data set [3] is listed as under 5.
Turning to `CC(C)CN(c1ccc([C@H](C)CC(=O)O)cc1NC1CCCC(C)(C)C1)C1CCCCC1` (stereo partly drawn) [example 183, (3R)-3-{4-[cyclohexyl(2-methylpropyl)amino]-3-[(3,3-dimethylcyclohexyl)ami-no]phenyl}butanoic acid], the “PBMC TOX PXC50” value in data set [1] is under 5. For the same molecule, the IC50 in data set [2] was 200 nM; in data set [4], 398 nM. Besides, the HELA_IDO1_TOX_PXC50 in data set [3] is under 5.
On to `CC(C)CN(c1ccc([C@H](C)CC(=O)O)cc1Nc1cnc(C#N)cn1)C1CCOCC1` [Example 19, (R)-3-(3-((5-cyanopyrazin-2-yl)amino)-4-(isobutyl(tetrahydro-2H-pyran-4-yl)amino)phenyl)butanoic Acid], for which, in data set [1], the “PBMC TOX PXC50” value is reported as under 5. For the same molecule, the figures for the IC50 in data set [2] and in data set [4] were 2.51 nM and 5.01 nM, respectively. In data set [3], this molecule gave an HELA_IDO1_TOX_PXC50 of under 5.
Consider `CC(C)CN(c1ccc(C(C)(C)CC(=O)O)cc1Nc1nc(Cl)ns1)C1CCOCC1` [Example 5, 3-(3-((3-chloro-1,2,4-thiadiazol-5-yl)amino)-4-(isobutyl(tetrahydro-2H-pyran-4-yl)amino)phenyl)-3-methylbutanoic Acid], for which, in data set [1], the “PBMC TOX PXC50” value was under 5. Also, the IC50 was 5.01 nM in data set [2] and 25.1 nM in data set [4]. Besides, the HELA_IDO1_TOX_PXC50 in data set [3] was under 5.
On to `CC(C)CN(c1ccc([C@H](C)CC(=O)O)cc1Nc1nc(C(F)(F)F)ns1)C1CCN(S(C)(=O)=O)CC1` [Example 71], for which the “PBMC TOX PXC50” value in data set [1] is listed as under 5. In addition, the figures for the IC50 in data set [2] and in data set [4] were 5.01 nM and 20 nM, respectively. In addition, in data set [3], the HELA_IDO1_TOX_PXC50 is on record as under 5.
